We go through 32 molecules from ChEMBL document CHEMBL3797025, “Spirooxadiazoline oxindoles with promising in vitro antitumor activities” (Medchemcomm, 2016).

Data set [1] can be described thus: Antiproliferative activity against human p53 -/- HCT116 cells measured after 72 hrs by MTS assay. The format is functional. As to conditions: HCT-116, 72 h. Background: Formazan colour is commonly taken as a measure of viable cells.
Data set [2] is described as follows: Antiproliferative activity against human p53 +/+ HCT116 cells measured after 72 hrs by MTS assay. The format is functional. As to conditions: HCT-116, 72 h.
Data set [3] relates to HepG2. Kind of data set: Antiproliferative activity against human HepG2 cells expressing wild-type P53 measured after 72 hrs by MTS assay. The format is functional. As to conditions: HepG2, 72 h.
The nature of data set [4]: Antiproliferative activity against human SW620 cells expressing P53 mutant measured after 72 hrs by MTS assay. Type of data set: functional. As to conditions: SW-620, 72 h.
Data set [5] has as its system HCT-116. In words: Induction of apoptosis in human p53 +/+ HCT116 cells assessed as activation of caspase3 at 5 or 10 uM after 24 hrs by Caspase-Glo 3/7 assay. The format is functional, cell-based.
Data set [6] is described as follows: Half life in Sprague-Dawley rat liver microsomes at 37 degC in presence of NADPH generating system by HPLC analysis. The format is ADME.
Data set [7] concerns HCT-116. Kind of data set: Induction of apoptosis in human p53 +/+ HCT116 cells assessed as increase in PARP cleavage at 5 or 10 uM after 24 hrs by western blot analysis. The format is functional, cell-based.
The subject of data set [8] is HCT-116. Kind of data set: Induction of apoptosis in human p53 +/+ HCT116 cells assessed as activation of caspase7 at 5 or 10 uM after 24 hrs by Caspase-Glo 3/7 assay. Type of data set: functional, cell-based.
Data set [9] concerns the target Cellular tumor antigen p53 (Homo sapiens) (UniProt P04637). Kind of data set: Induction of p53 phosphorylation at serine-15 in human p53 +/+ HCT 116 cells bat 5 or 10 uM after 24 hrs by western blot analysis. Type of data set: cell-based. (In general: In western blotting, separated proteins are transferred to a membrane and probed.)
Data set [10] in a line: Chemical stability in phosphate buffer at pH 7.4 and 37 degC measured for 3 days by HPLC analysis. Conditions: pH 7.4, 72 h. The format is physicochemical.
A short description of data set [11]: Metabolic stability at human plasma assessed as compound degradation at 37 degC after 72 hrs by HPLC analysis. Type of data set: ADME, cell-free. Conditions: read-out: Drug degradation.

Active and inactive are the calls of the source.

Sequence of Cellular tumor antigen p53 (Homo sapiens) (P04637 whole entry, looked up): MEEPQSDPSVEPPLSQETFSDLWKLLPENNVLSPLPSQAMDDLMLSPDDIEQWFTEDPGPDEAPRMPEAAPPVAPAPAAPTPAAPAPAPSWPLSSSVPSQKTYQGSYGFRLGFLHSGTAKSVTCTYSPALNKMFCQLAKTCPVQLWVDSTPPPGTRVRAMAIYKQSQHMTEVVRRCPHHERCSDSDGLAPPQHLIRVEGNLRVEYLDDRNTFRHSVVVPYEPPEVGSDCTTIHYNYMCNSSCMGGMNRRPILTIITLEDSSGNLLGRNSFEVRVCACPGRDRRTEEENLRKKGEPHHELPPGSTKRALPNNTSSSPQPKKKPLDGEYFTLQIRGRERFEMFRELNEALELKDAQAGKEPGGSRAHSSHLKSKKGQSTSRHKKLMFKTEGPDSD

The term GI50 denotes the concentration giving 50% growth inhibition. High values mean less potent growth inhibition, low ones more potent growth inhibition. As to `O=C1Nc2ccc(Cl)cc2[C@]12ON=C(c1ccccc1)N2c1ccc(Cl)cc1`, the GI50 was determined as 27 µM in data set [1] and 27.1 µM in [2].

Consider `O=C1Nc2cc(Cl)ccc2[C@]12ON=C(c1ccc(Cl)cc1)N2c1ccccc1`, for which the GI50 in data set [1] amounted to 30.6 µM; in data set [2], 26.5 µM.

Take `O=C1Nc2ccc(Cl)cc2[C@]12ON=C(c1cccc(Cl)c1)N2c1ccc(Cl)cc1`: the GI50 in data set [1] worked out at 21.8 µM; in data set [2], 21.3 µM.

On to `O=C1Nc2ccc(Cl)cc2[C@]12ON=C(c1ccccc1)N2c1cccc(Cl)c1`, for which the GI50 came out at 41.6 µM in data set [1] and 26.4 µM in [2].

Consider `O=C1Nc2ccccc2[C@]12ON=C(c1ccccc1)N2c1ccc(Cl)cc1`, for which halving of growth in [2] (GI50) required 54.5 µM.

`Cc1ccc(C2=NO[C@@]3(C(=O)Nc4cc(Cl)ccc43)N2c2ccccc2)cc1`: halving of growth in data set [2] (GI50) required 50.6 µM.

With `O=C1Nc2ccc(Br)cc2[C@]12ON=C(c1ccccc1)N2c1cccc(Cl)c1`, the GI50 in [1] stood at 7.5 µM; in data set [2], 4.7 µM; in data set [3] it was 3.5 µM; in data set [4], 4.2 µM.

In [2], `O=C1Nc2ccc(Cl)cc2[C@]12ON=C(c1ccccc1)N2c1ccccc1` registered a GI50 of 39.1 µM.

Molecule `O=C1Nc2ccccc2[C@]12ON=C(c1ccccc1)N2c1cccc(Cl)c1` showed a GI50 in [2] of 70.1 µM.

For the molecule `O=C1Nc2ccc(Cl)cc2[C@]12ON=C(c1ccc(Cl)cc1)N2c1ccc(Cl)cc1`, the GI50 in [1] was found to be 18 µM; in data set [2] it was 17.6 µM.

Take `O=C1Nc2ccc(Br)cc2[C@]12ON=C(c1ccccc1)N2c1ccc(Cl)cc1`: the GI50 in data set [1] worked out at 25.8 µM; in data set [2], 21.9 µM.

For the molecule `COc1ccc(C2=N[C@@H](c3ccc(Cl)cc3)[C@@H](c3ccc(Cl)cc3)N2C(=O)N2CCNC(=O)C2)c(OC(C)C)c1` [NUTLIN-3], the values for the GI50 in data set [1] and in data set [2] were 47.8 µM and 4 µM, respectively.

In turn, `O=C1Nc2cc(Cl)ccc2[C@]12ON=C(c1ccc(Cl)cc1)N2c1ccc(Cl)cc1` gave a GI50 in data set [2] of 13.2 µM.

As to `O=C1Nc2ccc(Br)cc2[C@]12ON=C(c1cccc(Cl)c1)N2c1ccc(F)c(Cl)c1`, the GI50 in data set [1] was 7.2 µM; in data set [2] it was 6.6 µM; in [3], 4 µM; in [4] it was 6.7 µM.

Consider `O=C1Nc2ccc(Cl)cc2[C@]12ON=C(c1ccc(Cl)cc1)N2c1cccc(Cl)c1`, for which the figures for the GI50 in data set [1] and in data set [2] were 29 µM and 25.6 µM, respectively.

For `O=C1Nc2ccc(Br)cc2[C@]12ON=C(c1ccccc1)N2c1ccccc1`, halving of growth in data set [2] (GI50) required 13.5 µM.

In [2], `O=C1Nc2ccccc2[C@]12ON=C(c1cccc(Cl)c1)N2c1cccc(Cl)c1` yielded a GI50 of 32.6 µM.

The half-life is the time needed for the level to fall by half in the phase considered. With `O=C1Nc2ccc(Br)cc2[C@]12ON=C(c1cccc(Cl)c1)N2c1cccc(Cl)c1`, the GI50 was 2.9 µM in [1], 2 µM in [2], 2.1 µM in data set [3] and 2.1 µM in data set [4]. For the same molecule, the result in data set [5], in data set [7] and in data set [8] was Active. Further, the half-life in [6] is 33.5 min. Further, the result in data set [9] was inactive. In addition, in [10], the Stability entry is given as “Stable”. Moreover, the metabolised at 72 h in data set [11] was found to be 38%.

Regarding `O=C1Nc2ccc(Br)cc2[C@]12ON=C(c1ccc(Cl)cc1)N2c1cccc(Cl)c1`, the GI50 turned out to be 12.3 µM in [1], 7.7 µM in data set [2], 4.1 µM in data set [3] and 8 µM in data set [4].

Regarding `O=C1Nc2cc(Cl)ccc2[C@]12ON=C(c1cccc(Cl)c1)N2c1cccc(Cl)c1`, the GI50 in data set [1] worked out at 7.8 µM; in data set [2], 6.6 µM; in [3], 4.4 µM; in [4], 6.7 µM.

As for `O=C1Nc2ccc(Cl)cc2[C@]12ON=C(c1cccc(Cl)c1)N2c1cccc(Cl)c1`, the GI50 in data set [1] was 6.8 µM; in data set [2] it was 4.6 µM; in data set [3], 3.3 µM; in data set [4], 3.9 µM.

On to `O=C1Nc2cc(Cl)ccc2[C@]12ON=C(c1ccccc1)N2c1ccc(Cl)cc1`, for which, in [2], the GI50 is 31.8 µM.

In data set [2], `O=C1Nc2cc(Cl)ccc2[C@]12ON=C(c1cccc(Cl)c1)N2c1ccc(Cl)cc1` displayed a GI50 of 28.7 µM.

Regarding `O=C1Nc2ccccc2[C@]12ON=C(c1ccc(Cl)cc1)N2c1ccc(Cl)cc1`, halving of growth in data set [2] (GI50) required 31.2 µM.

For `O=C1Nc2ccc(Br)cc2[C@]12ON=C(c1cccc(Br)c1)N2c1cccc(Br)c1`, the GI50 in data set [1] worked out at 6 µM; in [2] it was 3.2 µM; in [3] it was 2.2 µM; in data set [4] it was 3.7 µM.

Regarding `O=C1Nc2ccccc2[C@]12ON=C(c1cccc(Cl)c1)N2c1ccc(Cl)cc1`, growth in data set [2] was halved (GI50) at 38.4 µM.

With `O=C1Nc2ccc(Br)cc2[C@]12ON=C(c1cccc(Cl)c1F)N2c1cccc(Cl)c1`, the GI50 in data set [1] was determined as 4.4 µM; in data set [2], 3.2 µM; in [3] it was 2.5 µM; in data set [4], 3.5 µM.

Turning to `O=C1Nc2ccccc2[C@]12ON=C(c1ccccc1)N2c1ccc(F)cc1`, the concentration for 50% growth inhibition (GI50) in data set [2] came to 99.6 µM.

On to `O=C1Nc2ccc(Br)cc2[C@]12ON=C(c1cccc(Cl)c1)N2c1cccc(Cl)c1F`, for which the GI50 in data set [1] was 2 µM; in [2], 1.7 µM; in data set [3], 1.2 µM; in [4], 2 µM.

The molecule `O=C1Nc2ccccc2[C@]12ON=C(c1ccc(Cl)cc1)N2c1cccc(Cl)c1` displayed a GI50 in [2] of 33.7 µM.

On to `O=C1Nc2cc(Cl)ccc2[C@]12ON=C(c1ccccc1)N2c1ccccc1`, for which the GI50 in data set [1] is 35.5 µM; in [2] it was 28.4 µM.

With `O=C1Nc2cc(Cl)ccc2[C@]12ON=C(c1ccc(Cl)cc1)N2c1cccc(Cl)c1`, in data set [2], growth was halved (GI50) at 20.2 µM.
